Source: the supplement of paper PMC5908809

Legend:
[1] = system: normal NK cells expanded with K562-aAPC; assay: drug sensitivity score (DSS) (DSS units); higher = more sensitive; extreme values may be limits of the assay; details: 72 h; IL-2 2.5 ng/mL
Procedure: (§1)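 Drug sensitivity and resistance testing on K562-aAPC-expanded normal NK cells: 5 concentrations (10-fold steps over a 10,000-fold range), 72 h at 37 °C, viability by CellTiter-Glo normalised to DMSO and benzethonium chloride controls; DSS from the fitted curve.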

KHYG-1 (IL-2 2.5 ng/mL) [2] = assay: percent inhibition of viability; higher = more inhibition; details: 72 h
SNK-6 (IL-2 2.5 ng/mL) [3] = assay: as above; details: 72 h
[4] = system: normal primary NK cells, pool 1 (3 donors) (IL-2 2.5 ng/mL); assay: as above; details: 72 h
DERL-7 (IL-2 2.5 ng/mL) [5] = assay: as above; details: 72 h
KAI3 (IL-2 2.5 ng/mL) [6] = assay: as above; details: 72 h
IMC-1 (IL-2 20 ng/mL) [7] = assay: as above; details: 72 h
NKL (IL-2 2.5 ng/mL) [8] = assay: as above; details: 72 h
[9] = system: normal primary NK cells, pool 1 (3 donors), resting (IL-2 0 ng/mL); assay: as above; details: 72 h
YT (IL-2 2.5 ng/mL) [10] = assay: as above; details: 72 h
NK-YS (IL-2 2.5 ng/mL) [11] = assay: as above; details: 72 h
[12] = system: normal primary NK cells, pool 3 (3 donors) (IL-2 2.5 ng/mL); assay: as above; details: 72 h
[13] = system: normal primary NK cells, pool 2 (3 donors) (IL-2 2.5 ng/mL); assay: as above; details: 72 h
NK-92 (IL-2 2.5 ng/mL) [14] = assay: as above; details: 72 h
KHYG-1 (IL-2 2.5 ng/mL) [15] = assay: drug sensitivity score (DSS) (DSS units); higher = more sensitive; extreme values may be limits of the assay; details: 72 h
SNK-6 (IL-2 2.5 ng/mL) [16] = assay: as above; details: 72 h
[17] = system: normal primary NK cells, pool 1 (3 donors) (IL-2 2.5 ng/mL); assay: as above; details: 72 h
DERL-7 (IL-2 2.5 ng/mL) [18] = assay: as above; details: 72 h
KAI3 (IL-2 2.5 ng/mL) [19] = assay: as above; details: 72 h
IMC-1 (IL-2 20 ng/mL) [20] = assay: as above; details: 72 h
NKL (IL-2 2.5 ng/mL) [21] = assay: as above; details: 72 h
[22] = system: normal primary NK cells, pool 1 (3 donors), resting (IL-2 0 ng/mL); assay: as above; details: 72 h
YT (IL-2 2.5 ng/mL) [23] = assay: as above; details: 72 h
NK-YS (IL-2 2.5 ng/mL) [24] = assay: as above; details: 72 h
[25] = system: normal primary NK cells, pool 3 (3 donors) (IL-2 2.5 ng/mL); assay: as above; details: 72 h
[26] = system: normal primary NK cells, pool 2 (3 donors) (IL-2 2.5 ng/mL); assay: as above; details: 72 h
NK-92 (IL-2 2.5 ng/mL) [27] = assay: as above; details: 72 h
[28] = system: normal NK cells expanded with K562-aAPC; assay: percent inhibition of viability; higher = more inhibition; details: 72 h, IL-2 2.5 ng/mL
Procedure: as §1

CCN(CC)CCOc1ccc(C(=C(Cl)c2ccccc2)c2ccccc2)cc1 [Clomifene] (max concentration tested 10000 nM)
Details	drug sensitivity score
DERL-7 (IL-2 2.5 ng/mL) [18]	7.34
IMC-1 (IL-2 20 ng/mL) [20]	5.71
KAI3 (IL-2 2.5 ng/mL) [19]	8.38
KHYG-1 (IL-2 2.5 ng/mL) [15]	6.7
NK-92 (IL-2 2.5 ng/mL) [27]	8.7
NK-YS (IL-2 2.5 ng/mL) [24]	3.68
NKL (IL-2 2.5 ng/mL) [21]	6.51
SNK-6 (IL-2 2.5 ng/mL) [16]	8.37
YT (IL-2 2.5 ng/mL) [23]	5.67
[1]	3.63
[17]	5.98
[22]	6.86
[25]	4.97
[26]	6.93

percent inhibition of viability [%]
Details	1 nM	10 nM	100 nM	1000 nM	10000 nM
DERL-7 (IL-2 2.5 ng/mL) [5]	4.06	0.91	9.39	20.4	79.7
IMC-1 (IL-2 20 ng/mL) [7]	-0.71	-1.19	4.94	7.46	81.3
KAI3 (IL-2 2.5 ng/mL) [6]	3.86	7.81	10.3	17.6	99.2
KHYG-1 (IL-2 2.5 ng/mL) [2]	0.74	-4.89	7.01	8.03	98
NK-92 (IL-2 2.5 ng/mL) [14]	-3.93	-4.07	20.1	22.8	99.2
NK-YS (IL-2 2.5 ng/mL) [11]	-0.14	0.6	4.95	5.57	51.9
NKL (IL-2 2.5 ng/mL) [8]	9.73	-5.45	18.5	9.46	89.1
SNK-6 (IL-2 2.5 ng/mL) [3]	23.4	4.68	23.5	22.9	96.8
YT (IL-2 2.5 ng/mL) [10]	2.71	-4.92	7.54	1.85	97.5
[4]	-14.7	-1.65	-8.5	6.72	89.3
[9]	-1.08	10.5	-7.5	11	90.7
[12]	2.17	1.82	-1.1	13.6	53.4
[13]	-3.18	-2.06	-0.72	14.9	80.9
[28]	-4.27	-4.95	6.21	5.94	49.9

CC(=O)OC[C@H]1O[C@@H]([S-])[C@H](OC(C)=O)[C@@H](OC(C)=O)[C@@H]1OC(C)=O.CCP(CC)CC.[Au+] [Auranofin] (max concentration tested 2500 nM)
Details	drug sensitivity score
DERL-7 (IL-2 2.5 ng/mL) [18]	10.6
IMC-1 (IL-2 20 ng/mL) [20]	5.76
KAI3 (IL-2 2.5 ng/mL) [19]	3.64
KHYG-1 (IL-2 2.5 ng/mL) [15]	7.93
NK-92 (IL-2 2.5 ng/mL) [27]	5.5
NK-YS (IL-2 2.5 ng/mL) [24]	6.36
NKL (IL-2 2.5 ng/mL) [21]	11.9
SNK-6 (IL-2 2.5 ng/mL) [16]	8.77
YT (IL-2 2.5 ng/mL) [23]	5.39
[1]	10.2
[17]	19.7
[22]	23.7
[25]	17.4
[26]	16.3

percent inhibition of viability [%]
Details	0.25 nM	2.5 nM	25 nM	250 nM	2500 nM
DERL-7 (IL-2 2.5 ng/mL) [5]	-0.63	7.06	8.16	44.6	98.2
IMC-1 (IL-2 20 ng/mL) [7]	-3.33	-1.53	4.17	1.71	99.3
KAI3 (IL-2 2.5 ng/mL) [6]	-6.77	-2.1	-2.36	-3.59	71.4
KHYG-1 (IL-2 2.5 ng/mL) [2]	0.4	-2.1	1.71	13.8	104
NK-92 (IL-2 2.5 ng/mL) [14]	-2.57	-12.2	-2.23	-0.04	98.4
NK-YS (IL-2 2.5 ng/mL) [11]	-7.49	-6.18	-3.6	9.95	84.9
NKL (IL-2 2.5 ng/mL) [8]	-10.3	-9.31	-24.6	52.6	106
SNK-6 (IL-2 2.5 ng/mL) [3]	13.5	17.1	4.84	33.2	86
YT (IL-2 2.5 ng/mL) [10]	-4.83	-3.66	0.33	-3.85	101
[4]	-6.81	-8.13	21.6	92.8	100
[9]	5.52	-6.64	48.2	92.5	99.7
[12]	-4.42	1.03	18.4	81.8	101
[13]	-13.4	-6.97	8.16	82.7	101
[28]	1.15	-1.41	-0.3	33.5	100

CC(C)(C)NC(=O)[C@H]1CC[C@H]2[C@@H]3CC[C@H]4NC(=O)C=C[C@]4(C)[C@H]3CC[C@]12C [Finasteride] (max concentration tested 10000 nM)
Details	drug sensitivity score
DERL-7 (IL-2 2.5 ng/mL) [18]	0.06
IMC-1 (IL-2 20 ng/mL) [20]	1.45
KAI3 (IL-2 2.5 ng/mL) [19]	1.87
KHYG-1 (IL-2 2.5 ng/mL) [15]	0.04
NK-92 (IL-2 2.5 ng/mL) [27]	2.97
NK-YS (IL-2 2.5 ng/mL) [24]	0.05
NKL (IL-2 2.5 ng/mL) [21]	2.88
SNK-6 (IL-2 2.5 ng/mL) [16]	0
YT (IL-2 2.5 ng/mL) [23]	1.11
[1]	0.32
[17]	0
[22]	0.89
[25]	0
[26]	0.04

percent inhibition of viability [%]
Details	1 nM	10 nM	100 nM	1000 nM	10000 nM
DERL-7 (IL-2 2.5 ng/mL) [5]	8.57	-6.64	5.89	-0.19	12.4
IMC-1 (IL-2 20 ng/mL) [7]	-6.06	-4.68	-1.34	2.37	27.1
KAI3 (IL-2 2.5 ng/mL) [6]	2.67	5.19	10.5	4.13	28.6
KHYG-1 (IL-2 2.5 ng/mL) [2]	-6.44	-5.37	3.63	2.04	10.9
NK-92 (IL-2 2.5 ng/mL) [14]	-2.71	-10.9	0.46	4.24	44.5
NK-YS (IL-2 2.5 ng/mL) [11]	-10.4	-1.41	-5.34	5.54	10.5
NKL (IL-2 2.5 ng/mL) [8]	5.94	-9.09	10.7	13	34.2
SNK-6 (IL-2 2.5 ng/mL) [3]	-3.02	-28.7	-17.3	-25.3	-11.3
YT (IL-2 2.5 ng/mL) [10]	4.41	-7.13	5.2	-3.12	30.2
[4]	-9.53	1.23	3.62	-7.18	3.28
[9]	1.92	14	3.85	6.98	20.4
[12]	1.72	-0.73	15.2	-6.78	1.67
[13]	-2.14	-1.25	3.98	-1.8	12.4
[28]	-10.9	-11.1	-5.78	1.82	14.1
